Measurements published in patent EP0044212B1, “Herbicidal o-alkylsulfonyloxy- and o-alkylsulfonylamino-benzenesulfonamides” (E.I. DU PONT DE NEMOURS AND COMPANY, priority 1980, dated 1982).

What was measured:
Assay in all cases: Test A greenhouse herbicide screen
Bush Bean = assay type: in vivo, bush beans; conditions: POST-EMERGENCE, 16 days
From the text: (§1) Seeds of crabgrass (Digitaria spp.), barnyardgrass (Echinochloa crusgalli), wild oats (Avena fatua), cassia (Cassia tora), morningglory (Ipomoea sp.), cocklebur (Xanthium spp.), sorghum, corn, soybean, rice, wheat and nutsedge tubers (Cyperus rotundus) were planted in a growth medium and treated preemergence with the chemicals dissolved in a non-phytotoxic solvent solution of the compounds of Table A. At the same time, cotton having five leaves (including cotyledonary ones), bush beans with the third trifoliate leaf expanding, crabgrass and barnyardgrass with two leaves, wild oats with two leaves, cassia with three leaves (including cotyledonary ones), morningglory and cocklebur with four leaves (including the cotyldonary ones), sorghum and corn with four leaves, soybean with two cotyledonary leaves, rice with three leaves, wheat with one leaf, and nutsedge with three-five leaves were sprayed with a non-phytotoxic solvent solution of the compounds of Table A. Other containers of the above mentioned weeds and crops were treated pre- or post-emergence with the same non-phytotoxic solvent so as to provide a solvent control. A set of untreated control plants was also included for comparison. Pre- emergence and post-emergence treated plants and controls were maintained in a greenhouse for sixteen days, then all treated plants were compared with their respective controls and rated visually for response to treatment.

Corn = assay type: in vivo; conditions: 16 days
From the text: as §1

Cotton = assay type: in vivo; conditions: POST-EMERGENCE, 16 days
From the text: as §1

Sorghum = assay type: in vivo; conditions: 16 days
From the text: as §1

Wild Oats = assay type: in vivo, Avena fatua; conditions: 16 days
From the text: as §1

Rice = assay type: in vivo; design: scale not given here; conditions: 16 days
From the text: as §1

Soybean = assay type: in vivo; design: scale not given here; conditions: 16 days
From the text: as §1

Wheat = assay type: in vivo; design: scale not given here; conditions: 16 days
From the text: as §1

Barnyardgrass = assay type: in vivo, Echinochloa crusgalli; conditions: 16 days
From the text: as §1

Crabgrass = assay type: in vivo, Digitaria spp.; design: scale not given here; conditions: 16 days
From the text: as §1

Morningglory = assay type: in vivo, Ipomoea sp.; conditions: 16 days
From the text: as §1

Cocklebur = assay type: in vivo, Xanthium spp.; conditions: 16 days
From the text: as §1

Cassia = assay type: in vivo, Cassia tora; design: scale not given here; conditions: 16 days
From the text: as §1

Nutsedge = assay type: in vivo, Cyperus rotundus; design: scale not given here; conditions: 16 days
From the text: as §1

COc1nc(C)nc(NC(=O)NS(=O)(=O)c2cc(Cl)cc(Cl)c2OS(C)(=O)=O)n1 [Compound 43]
Bush Bean response rating (Bush Bean; 2 kg/ha): 0
Bush Bean response rating (Bush Bean; 6 kg/ha): 3C
Corn response rating (Corn; POST-EMERGENCE, 2 kg/ha): 0
Corn response rating (Corn; POST-EMERGENCE, 6 kg/ha): 0
Corn response rating (Corn; PRE-EMERGENCE, 2 kg/ha): 0
Cotton response rating (Cotton; 2 kg/ha): 0
Cotton response rating (Cotton; 6 kg/ha): 3C
Sorghum response rating (Sorghum; POST-EMERGENCE, 2 kg/ha): 0
Sorghum response rating (Sorghum; POST-EMERGENCE, 6 kg/ha): 0
Sorghum response rating (Sorghum; PRE-EMERGENCE, 2 kg/ha): 0
Wild Oats response rating (Wild Oats; POST-EMERGENCE, 2 kg/ha): 0
Wild Oats response rating (Wild Oats; POST-EMERGENCE, 6 kg/ha): 0
Wild Oats response rating (Wild Oats; PRE-EMERGENCE, 2 kg/ha): 0
Rice response rating (Rice; POST-EMERGENCE, 2 kg/ha): 0
Rice response rating (Rice; POST-EMERGENCE, 6 kg/ha): 0
Rice response rating (Rice; PRE-EMERGENCE, 2 kg/ha): 0
Rice response rating (Rice; PRE-EMERGENCE, 6 kg/ha): 1C
Soybean response rating (Soybean; POST-EMERGENCE, 2 kg/ha): 0
Soybean response rating (Soybean; POST-EMERGENCE, 6 kg/ha): 1C
Soybean response rating (Soybean; PRE-EMERGENCE, 2 kg/ha): 0
Soybean response rating (Soybean; PRE-EMERGENCE, 6 kg/ha): 0
Wheat response rating (Wheat; POST-EMERGENCE, 2 kg/ha): 0
Wheat response rating (Wheat; POST-EMERGENCE, 6 kg/ha): 0
Wheat response rating (Wheat; PRE-EMERGENCE, 2 kg/ha): 0
Wheat response rating (Wheat; PRE-EMERGENCE, 6 kg/ha): 0
Barnyardgrass response rating (Barnyardgrass; POST-EMERGENCE, 2 kg/ha): 0
Barnyardgrass response rating (Barnyardgrass; POST-EMERGENCE, 6 kg/ha): 1C
Barnyardgrass response rating (Barnyardgrass; PRE-EMERGENCE, 2 kg/ha): 0
Crabgrass response rating (Crabgrass; POST-EMERGENCE, 2 kg/ha): 0
Crabgrass response rating (Crabgrass; POST-EMERGENCE, 6 kg/ha): 0
Crabgrass response rating (Crabgrass; PRE-EMERGENCE, 2 kg/ha): 0
Crabgrass response rating (Crabgrass; PRE-EMERGENCE, 6 kg/ha): 2G
Morningglory response rating (Morningglory; POST-EMERGENCE, 2 kg/ha): 0
Morningglory response rating (Morningglory; POST-EMERGENCE, 6 kg/ha): 0
Morningglory response rating (Morningglory; PRE-EMERGENCE, 2 kg/ha): 0
Morningglory response rating (Morningglory; PRE-EMERGENCE, 6 kg/ha): 3C
Cocklebur response rating (Cocklebur; POST-EMERGENCE, 2 kg/ha): 0
Cocklebur response rating (Cocklebur; POST-EMERGENCE, 6 kg/ha): 0
Cocklebur response rating (Cocklebur; PRE-EMERGENCE, 2 kg/ha): 0
Cassia response rating (Cassia; POST-EMERGENCE, 2 kg/ha): 0
Cassia response rating (Cassia; POST-EMERGENCE, 6 kg/ha): 1C
Cassia response rating (Cassia; PRE-EMERGENCE, 2 kg/ha): 0
Cassia response rating (Cassia; PRE-EMERGENCE, 6 kg/ha): 3G
Nutsedge response rating (Nutsedge; POST-EMERGENCE, 2 kg/ha): 0
Nutsedge response rating (Nutsedge; POST-EMERGENCE, 6 kg/ha): 0
Nutsedge response rating (Nutsedge; PRE-EMERGENCE, 2 kg/ha): 0
Nutsedge response rating (Nutsedge; PRE-EMERGENCE, 6 kg/ha): 0

COc1nc(NC(=O)NS(=O)(=O)c2cc(Cl)cc(Cl)c2OS(C)(=O)=O)nc(OC)n1 [Compound 44]
Bush Bean response rating (Bush Bean; 2 kg/ha): 0
Bush Bean response rating (Bush Bean; 6 kg/ha): 0
Corn response rating (Corn; POST-EMERGENCE, 2 kg/ha): 0
Corn response rating (Corn; POST-EMERGENCE, 6 kg/ha): 0
Corn response rating (Corn; PRE-EMERGENCE, 2 kg/ha): 0
Cotton response rating (Cotton; 2 kg/ha): 0
Cotton response rating (Cotton; 6 kg/ha): 2C
Sorghum response rating (Sorghum; POST-EMERGENCE, 2 kg/ha): 0
Sorghum response rating (Sorghum; POST-EMERGENCE, 6 kg/ha): 2C
Sorghum response rating (Sorghum; PRE-EMERGENCE, 2 kg/ha): 0
Sorghum response rating (Sorghum; PRE-EMERGENCE, 6 kg/ha): 2C
Wild Oats response rating (Wild Oats; POST-EMERGENCE, 2 kg/ha): 0
Wild Oats response rating (Wild Oats; POST-EMERGENCE, 6 kg/ha): 0
Wild Oats response rating (Wild Oats; PRE-EMERGENCE, 2 kg/ha): 0
Wild Oats response rating (Wild Oats; PRE-EMERGENCE, 6 kg/ha): 0
Rice response rating (Rice; POST-EMERGENCE, 2 kg/ha): 0
Rice response rating (Rice; POST-EMERGENCE, 6 kg/ha): 0
Rice response rating (Rice; PRE-EMERGENCE, 2 kg/ha): 0
Rice response rating (Rice; PRE-EMERGENCE, 6 kg/ha): 1C
Soybean response rating (Soybean; POST-EMERGENCE, 2 kg/ha): 0
Soybean response rating (Soybean; POST-EMERGENCE, 6 kg/ha): 3G
Soybean response rating (Soybean; PRE-EMERGENCE, 2 kg/ha): 0
Soybean response rating (Soybean; PRE-EMERGENCE, 6 kg/ha): 0
Wheat response rating (Wheat; POST-EMERGENCE, 2 kg/ha): 0
Wheat response rating (Wheat; POST-EMERGENCE, 6 kg/ha): 0
Wheat response rating (Wheat; PRE-EMERGENCE, 2 kg/ha): 0
Wheat response rating (Wheat; PRE-EMERGENCE, 6 kg/ha): 0
Barnyardgrass response rating (Barnyardgrass; POST-EMERGENCE, 2 kg/ha): 0
Barnyardgrass response rating (Barnyardgrass; POST-EMERGENCE, 6 kg/ha): 0
Barnyardgrass response rating (Barnyardgrass; PRE-EMERGENCE, 2 kg/ha): 0
Barnyardgrass response rating (Barnyardgrass; PRE-EMERGENCE, 6 kg/ha): 5C
Crabgrass response rating (Crabgrass; POST-EMERGENCE, 2 kg/ha): 0
Crabgrass response rating (Crabgrass; POST-EMERGENCE, 6 kg/ha): 0
Crabgrass response rating (Crabgrass; PRE-EMERGENCE, 2 kg/ha): 0
Crabgrass response rating (Crabgrass; PRE-EMERGENCE, 6 kg/ha): 0
Morningglory response rating (Morningglory; POST-EMERGENCE, 2 kg/ha): 0
Morningglory response rating (Morningglory; PRE-EMERGENCE, 2 kg/ha): 0
Morningglory response rating (Morningglory; PRE-EMERGENCE, 6 kg/ha): 2C
Cocklebur response rating (Cocklebur; POST-EMERGENCE, 2 kg/ha): 0
Cocklebur response rating (Cocklebur; POST-EMERGENCE, 6 kg/ha): 0
Cocklebur response rating (Cocklebur; PRE-EMERGENCE, 2 kg/ha): 0
Cocklebur response rating (Cocklebur; PRE-EMERGENCE, 6 kg/ha): 5H
Cassia response rating (Cassia; POST-EMERGENCE, 2 kg/ha): 0
Cassia response rating (Cassia; POST-EMERGENCE, 6 kg/ha): 0
Cassia response rating (Cassia; PRE-EMERGENCE, 2 kg/ha): 0
Cassia response rating (Cassia; PRE-EMERGENCE, 6 kg/ha): 5G
Nutsedge response rating (Nutsedge; POST-EMERGENCE, 2 kg/ha): 0
Nutsedge response rating (Nutsedge; POST-EMERGENCE, 6 kg/ha): 0
Nutsedge response rating (Nutsedge; PRE-EMERGENCE, 2 kg/ha): 0
Nutsedge response rating (Nutsedge; PRE-EMERGENCE, 6 kg/ha): 0
